Values quoted from earlier work, collected in US20200030253A1, “Methods and compositions for treatment of body conditions” (priority 2018, published 2020).

Conditions: octanol-water

C=C(C)[C@@H]1CCC(C)=C[C@H]1c1c(O)cc(CCCCC)cc1O [Cannabidiol]
Koctanol-water (lipophilicity): 6-7
